Reference: US6878707B2, “Carboxamides useful as inhibitors of microsomal triglyceride transfer protein and of apolipoprotein b secretion” (Novartis AG, priority 2001, dated 2005)

Key:
[1] = test system: apolipoprotein B (apo B) secretion; assay: apo B assay; assay type: cell-based
From the text: (§1) The corresponding relevant subject matter of said PCT application is herewith incorporated by reference into the present specification.

[2] = biological target: microsomal triglyceride transfer protein (MTP) (Homo sapiens, UniProt P55157); assay: MTP assay; assay type: biochemical
From the text: as §1

[3] = in vivo lowering of plasma triglycerides and cholesterol; conditions: dose of 5 mg/kg p.o.
From the text: as §1

Sequence of microsomal triglyceride transfer protein (MTP) (P55157 19-894, species assumed): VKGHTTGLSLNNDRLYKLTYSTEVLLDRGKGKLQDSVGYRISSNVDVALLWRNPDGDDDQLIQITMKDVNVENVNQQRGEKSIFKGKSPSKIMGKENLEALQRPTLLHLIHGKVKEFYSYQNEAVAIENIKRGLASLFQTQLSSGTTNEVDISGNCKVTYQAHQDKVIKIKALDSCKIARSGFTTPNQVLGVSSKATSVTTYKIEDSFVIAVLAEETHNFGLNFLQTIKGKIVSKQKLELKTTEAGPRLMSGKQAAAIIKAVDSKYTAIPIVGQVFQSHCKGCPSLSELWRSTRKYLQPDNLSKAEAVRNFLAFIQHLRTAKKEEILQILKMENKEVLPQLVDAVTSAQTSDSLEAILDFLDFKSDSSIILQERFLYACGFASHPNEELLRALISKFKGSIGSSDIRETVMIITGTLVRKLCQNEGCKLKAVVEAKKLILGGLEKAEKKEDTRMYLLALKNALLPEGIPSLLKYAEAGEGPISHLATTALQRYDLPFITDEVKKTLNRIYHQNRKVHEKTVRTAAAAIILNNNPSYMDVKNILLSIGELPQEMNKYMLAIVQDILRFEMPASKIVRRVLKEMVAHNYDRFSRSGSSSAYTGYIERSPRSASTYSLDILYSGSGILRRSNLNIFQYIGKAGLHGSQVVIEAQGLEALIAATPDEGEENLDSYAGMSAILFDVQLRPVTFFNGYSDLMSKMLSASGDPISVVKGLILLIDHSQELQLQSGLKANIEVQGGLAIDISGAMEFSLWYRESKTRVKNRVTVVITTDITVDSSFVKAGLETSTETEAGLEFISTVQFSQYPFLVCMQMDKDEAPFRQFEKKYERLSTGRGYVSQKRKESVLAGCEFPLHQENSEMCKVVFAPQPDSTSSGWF
Sequence of microsomal triglyceride transfer protein (MTP) (P07237 18-508 partner, species assumed): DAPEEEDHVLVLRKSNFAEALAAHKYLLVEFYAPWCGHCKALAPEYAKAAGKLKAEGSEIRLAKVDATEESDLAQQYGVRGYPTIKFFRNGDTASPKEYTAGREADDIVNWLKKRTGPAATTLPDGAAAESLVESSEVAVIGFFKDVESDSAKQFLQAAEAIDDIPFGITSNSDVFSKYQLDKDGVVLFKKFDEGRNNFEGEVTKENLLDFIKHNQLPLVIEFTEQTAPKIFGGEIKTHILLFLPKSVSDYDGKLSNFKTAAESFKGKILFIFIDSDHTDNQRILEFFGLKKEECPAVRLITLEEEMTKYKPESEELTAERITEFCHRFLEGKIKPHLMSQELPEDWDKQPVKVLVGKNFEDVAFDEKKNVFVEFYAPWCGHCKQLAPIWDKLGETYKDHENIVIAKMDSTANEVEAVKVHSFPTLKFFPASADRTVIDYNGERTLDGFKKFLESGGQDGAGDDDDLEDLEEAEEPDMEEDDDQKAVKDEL

SMILES	melting point [°C]	further results
COC(=O)C1CCN(C2Cc3ccc(NC(=O)c4cccc(C)c4-c4ccc(C(F)(F)F)cc4)cc3C2)CC1 (stereo not drawn) [Example 9]	191 to 195	–
COC(=O)N1CCN(C2Cc3ccc(NC(=O)c4cccc(OC)c4-c4ccc(F)cc4)cc3C2)CC1 (stereo not drawn) [Example 13]	132 to 134	–
COC(=O)N1CCN(C2Cc3ccc(NC(=O)c4ccccc4-c4ccccc4)cc3C2)CC1 (stereo not drawn) [Example 39]	164 to 168	–
CC(=O)N1CCN(C2Cc3ccc(NC(=O)c4cccc(C(F)(F)F)c4-c4ccc(C(F)(F)F)cc4)cc3C2)CC1 (stereo not drawn) [Example 22]	184 to 186	–
Cc1cccc(C(=O)Nc2ccc3c(c2)CC(N2CCOCC2)C3)c1-c1ccc(C(F)(F)F)cc1 (stereo not drawn) [Example 7]	201 to 204	–
O=C(Nc1ccc2c(c1)CC(N1CCOCC1)C2)c1ccccc1-c1ccc(C(F)(F)F)cc1 (stereo not drawn) [Example 8]	191 to 194	–
COC(=O)N1CCN(C2Cc3ccc(NC(=O)c4cccc(OC)c4-c4ccc(C(F)(F)F)cc4)cc3C2)CC1 (stereo not drawn) [Example 38]	176 to 178	–
COC(=O)N1CCN(C2Cc3ccc(NC(=O)c4ccccc4-c4ccc(C(F)(F)F)cc4)cc3C2)CC1 (stereo not drawn) [Example 6]	204 to 206	–
Cc1cccc(C(=O)Nc2ccc3c(c2)CC(N2CCC4(CC2)OCCO4)C3)c1-c1ccc(C(F)(F)F)cc1 (stereo not drawn) [Example 11]	202 to 203	–
COC1CCN(C2Cc3ccc(NC(=O)c4cccc(C)c4-c4ccc(C(F)(F)F)cc4)cc3C2)CC1 (stereo not drawn) [Example 10]	197 to 199	–
COC(=O)N1CCN(C2Cc3ccc(NC(=O)c4cccc(C(F)(F)F)c4-c4ccc(C(F)(F)F)cc4)cc3C2)CC1 (stereo not drawn) [Example 5]	210 to 212	–
COC(=O)N1CCN(C2Cc3ccc(NC(=O)c4ccccc4-c4ccc(C)cc4)cc3C2)CC1 (stereo not drawn) [Example 41]	136 to 138	–
COC(=O)N1CCN(C2Cc3ccc(NC(=O)c4cccc(C)c4-c4ccc(F)cc4)cc3C2)CC1 (stereo not drawn) [Example 37]	141 to 142	–
Cc1cccc(C(=O)Nc2ccc3c(c2)CC(N2CCN(S(C)(=O)=O)CC2)C3)c1-c1ccc(C(F)(F)F)cc1 (stereo not drawn) [Example 24]	205 to 208	–
Cc1cccc(C(=O)Nc2ccc3c(c2)CC(N2CCC(C)CC2)C3)c1-c1ccc(C(F)(F)F)cc1 (stereo not drawn) [Example 12]	219 to 221	–
Cc1ccc(S(=O)(=O)N2CCN(C3Cc4ccc(NC(=O)c5cccc(C)c5-c5ccc(C(F)(F)F)cc5)cc4C3)CC2)cc1 (stereo not drawn) [Example 23]	153 to 154	–

Now from value to molecule, other results behind:

melting point [°C]	SMILES	further results
158 to 160	Cc1cccc(C(=O)Nc2ccc3c(c2)CC(N2CCN(C(=O)c4ccncc4)CC2)C3)c1-c1ccc(C(F)(F)F)cc1 (stereo not drawn) [Example 25]	–
236 to 238	Cc1cccc(C(=O)Nc2ccc3c(c2)CC(N2CCN(c4ccccc4)CC2)C3)c1-c1ccc(C(F)(F)F)cc1 (stereo not drawn) [Example 2]	–
160 to 161	Cc1cccc(C(=O)Nc2ccc3c(c2)CC(N2CCN(C(=O)COCc4ccccc4)CC2)C3)c1-c1ccc(C(F)(F)F)cc1 (stereo not drawn) [Example 29]	–
86 to 88	Cc1cccc(C(=O)Nc2ccc3c(c2)CC(N2CCN(C(=O)CO)CC2)C3)c1-c1ccc(C(F)(F)F)cc1 (stereo not drawn) [Example 30]	–
120 to 123	Cc1cccc(C(=O)Nc2ccc3c(c2)CC(N2CCN(C(=O)c4ccccc4)CC2)C3)c1-c1ccc(C(F)(F)F)cc1 (stereo not drawn) [Example 28]	–
217 to 218	Cc1cccc(C(=O)Nc2ccc3c(c2)CC(N2CCN(C(=O)N(C)C)CC2)C3)c1-c1ccc(C(F)(F)F)cc1 (stereo not drawn) [Example 27]	–
190 to 194	Cc1cccc(C(=O)Nc2ccc3c(c2)CC(N2CCN(Cc4ccccn4)CC2)C3)c1-c1ccc(C(F)(F)F)cc1 (stereo not drawn) [Example 31, 6-methyl-4′-trifluoromethyl-1,1′-biphenyl-N-[2-[4-(2-pyridinylmethyl)piperazino]indan-5-yl]-2-carboxamide]	–
161 to 163	COC(=O)N1CCN(C2Cc3ccc(NC(=O)c4cccc(C)c4-c4ccc(C(F)(F)F)cc4)cc3C2)CC1 (racemic) [Example 1, 6-Methyl-4′-trifluoromethyl-1,1′-biphenyl-N-[2[4-(methoxycarbonyl)-piperazino]-indan-5-yl]-2-carboxamide]	–
173 to 176	CCCC(=O)N1CCN(C2Cc3ccc(NC(=O)c4cccc(C)c4-c4ccc(C(F)(F)F)cc4)cc3C2)CC1 (stereo not drawn) [Example 21]	–
161 to 162	COCC(=O)N1CCN(C2Cc3ccc(NC(=O)c4cccc(C)c4-c4ccc(C(F)(F)F)cc4)cc3C2)CC1 (stereo not drawn) [Example 26]	–
209 to 210	Cc1cccc(C(=O)Nc2ccc3c(c2)CC(N2CCN(C)CC2)C3)c1-c1ccc(C(F)(F)F)cc1 (stereo not drawn) [Example 3]	–
163 to 164	COC(=O)N1CCN([C@@H]2Cc3ccc(NC(=O)c4cccc(C)c4-c4ccc(C(F)(F)F)cc4)cc3C2)CC1 [Example 14, (R)-6-Methyl-4′-trifluoromethyl-1,1′-biphenyl-N-[2-[4-(methoxycarbonyl)-piperazino]indan-5-yl]-2-carboxamide]	IC50 [1]: ~2 nM; IC50 [2]: ~40 nM; plasma cholesterol [3]: lowers; plasma triglycerides [3]: lowers
188 to 191	Cc1cccc(C(=O)Nc2ccc3c(c2)CC(N2CCN(Cc4ccccc4)CC2)C3)c1-c1ccc(C(F)(F)F)cc1 (stereo not drawn) [Example 4]	–
